SMILES strings stand for the structures.

For orientation: mortality means the share of the test organisms that died.

The assay deals with Plutella xylostella. In words: Plutella xylostella, leaf dip method. It counts as in vivo. As to conditions: foliar, cabbage leaf dip, second instar larvae, 72 h after release, dead + moribund vs untreated control, read-out: percent mortality. As for the experimental part: The leaf dip method was used for testing, wherein the required quantity of the compound was weighed and dissolved in a tube containing solvent solution. The tube was put on a vortex at 2000 rpm for 90 min for proper mixing, then diluted with 0.01% Triton-X solution to get the desired test concentration. Cabbage leaves were dipped in the compound solution for 10 seconds, shade dried for 20 min and then transferred into the cells of bioassay trays. A single second instar larva was released into each cell and the tray was covered with a lid. The bio-assay trays were then kept under laboratory conditions at a temperature of 25° C. and a relative humidity of 70%. Observations on dead, moribund and alive larvae were recorded 72 h after the release. Percent mortality was calculated by combining dead and moribund larvae and comparing the result to the one of the untreated control.
Take `CCSc1cc(-c2ccc(OC(F)(F)C(F)F)cc2)cnc1-c1ccn2nc(C(F)(F)F)cc2n1` [Compound 191, 5-(3-(ethylthio)-5-(4-(1,1,2,2-tetrafluoroethoxy)phenyl)pyridin-2-yl)-2-(trifluoromethyl)pyrazolo[1,5-a]pyrimidine]: the mortality at 300 ppm was at least 70%.

For `CCS(=O)(=O)c1ccc(-n2ccc(F)n2)nc1-c1ccn2nc(C(F)(F)F)cc2n1` [Compound 140, 5-(3-(ethylsulfonyl)-6-(3-fluoro-1H-pyrazol-1-yl)pyridin-2-yl)-2-(trifluoromethyl)pyrazolo[1,5-a]pyrimidine], the mortality at 300 ppm is at least 70%.

Regarding `CCS(=O)(=O)c1ccc(N(C)C2CC2)nc1-c1ccn2nc(C(F)(F)F)nc2n1` [Compound 176, N-cyclopropyl-5-(ethylsulfonyl)-N-methyl-6-(2-(trifluoromethyl)-[1,2,4]triazolo[1,5-a]pyrimidin-5-yl)pyridin-2-amine], the mortality at 300 ppm is at least 70%. The figure for `C=Cc1cnc(-c2ccn3nc(C(F)(F)F)cc3n2)c(S(=O)(=O)CC)c1` [Compound 212, 5-(3-(ethylsulfonyl)-5-vinylpyridin-2-yl)-2-(trifluoromethyl)pyrazolo[1,5-a]pyrimidine] is at least 70%; for `CCS(=O)(=O)c1cc(-c2ccc(Cl)c(F)c2)cnc1-c1ncc2nc(C(F)(F)F)n(C)c2n1` [Compound 124, 2-(5-(4-chloro-3-fluorophenyl)-3-(ethylsulfonyl)pyridin-2-yl)-9-methyl-8-(trifluoromethyl)-9H-purine] it is at least 70%. The result for `CCS(=O)(=O)c1cc(-c2nccs2)cnc1-c1ccn2nc(C(F)(F)F)nc2n1` [Compound 132, 2-(5-(ethylsulfonyl)-6-(2-(trifluoromethyl)-[1,2,4]triazolo[1,5-a]pyrimidin-5-yl)pyridin-3-yl)thiazole] reads at least 70%. The figure for `CCS(=O)(=O)c1cc(N(C)C)cnc1-c1ccn2nc(C(F)(F)F)cc2n1` [Compound 230, 5-(ethylsulfonyl)-N,N-dimethyl-6-(2-(trifluoromethyl)pyrazolo[1,5-a]pyrimidin-5-yl)pyridin-3-amine] is at least 70%; for `CCS(=O)(=O)c1cc(-c2ccn3nc(C(F)(F)F)cc3n2)cnc1-n1ncn(-c2ccc(Cl)cc2)c1=O` [Compound 80, 4-(4-chlorophenyl)-2-(3-(ethylsulfonyl)-5-(2-(trifluoromethyl)pyrazolo[1,5-a]pyrimidin-5-yl)pyridin-2-yl)-2,4-dihydro-3H-1,2,4-triazol-3-one] it is at least 70%. For the compound `CCS(=O)(=O)c1ccc(C(C)C)nc1-c1ccn2nc(C(F)(F)F)cc2n1` [Compound 238, 5-(3-(ethylsulfonyl)-6-isopropylpyridin-2-yl)-2-(trifluoromethyl)pyrazolo[1,5-a]pyrimidine], the mortality at 300 ppm is at least 70%. The result for `CCS(=O)(=O)c1cc(-c2ccc(OC(F)(F)F)cc2)cnc1-c1ncc2nc(C(F)(F)F)n(C)c2n1` [Compound 119, 2-(3-(ethylsulfonyl)-5-(4-(trifluoromethoxy)phenyl)pyridin-2-yl)-9-methyl-8-(trifluoromethyl)-9H-purine] reads at least 70%; that for `CCS(=O)(=O)c1cc(-c2cc(F)cc(F)c2)cnc1-c1ncc2nc(C(F)(F)F)n(C)c2n1` [Compound 122, 2-(5-(3,5-difluorophenyl)-3-(ethylsulfonyl)pyridin-2-yl)-9-methyl-8-(trifluoromethyl)-9H-purine], at least 70%. The result for `CC#Cc1cnc(-c2ccn3nc(C(F)(F)F)cc3n2)c(S(=O)(=O)CC)c1` [Compound 178, 5-(3-(ethylsulfonyl)-5-(prop-1-yn-1-yl)pyridin-2-yl)-2-(trifluoromethyl)pyrazolo[1,5-a]pyrimidine] reads at least 70%; that for `CCS(=O)(=O)c1cc(NC)cnc1-c1ccn2nc(C(F)(F)F)cc2n1` [Compound 218, 5-(ethylsulfonyl)-N-methyl-6-(2-(trifluoromethyl)pyrazolo[1,5-a]pyrimidin-5-yl)pyridin-3-amine], at least 70%. The result for `CCS(=O)(=O)c1ccc(/C=C/C2CC2)nc1-c1ccn2nc(C(F)(F)F)cc2n1` [Compound 216, (E)-5-(6-(2-cyclopropylvinyl)-3-(ethylsulfonyl)pyridin-2-yl)-2-(trifluoromethyl)pyrazolo[1,5-a]pyrimidine] reads at least 70%. On to `CCS(=O)(=O)c1cc(OCC2CC2)cnc1-c1ccn2nc(C(F)(F)F)nc2n1` [Compound 161, 5-(5-(cyclopropylmethoxy)-3-(ethylsulfonyl)pyridin-2-yl)-2-(trifluoromethyl)-[1,2,4]triazolo[1,5-a]pyrimidine], for which the mortality at 300 ppm is at least 70%.

Take `CCS(=O)(=O)c1ccc(C2CC2)nc1-c1ccn2nc(C(F)(F)F)cc2n1` [Compound 171, 5-(6-cyclopropyl-3-(ethylsulfonyl)pyridin-2-yl)-2-(trifluoromethyl)pyrazolo[1,5-a]pyrimidine]: the mortality at 300 ppm is at least 70%. The figure for `CCS(=O)(=O)c1cc(NC(=O)C2CC2)cnc1-c1ccn2nc(C(F)(F)F)cc2n1` [Compound 233, N-(5-(ethylsulfonyl)-6-(2-(trifluoromethyl)pyrazolo[1,5-a]pyrimidin-5-yl)pyridin-3-yl)cyclopropanecarboxamide] is at least 70%.

Consider `CCSc1ccc(-n2cncn2)nc1-c1cnc2cc(C(F)(F)F)nn2c1` [Compound 40, 6-(3-(ethylthio)-6-(1H-1,2,4-triazol-1-yl)pyridin-2-yl)-2-(trifluoromethyl)pyrazolo[1,5-a]pyrimidine], for which the mortality at 300 ppm was at least 70%. The result for `CCS(=O)(=O)c1cc(NC(=O)OC(C)(C)C)cnc1-c1ccn2nc(C(F)(F)F)cc2n1` [Compound 222, tert-butyl (5-(ethylsulfonyl)-6-(2-(trifluoromethyl)pyrazolo[1,5-a]pyrimidin-5-yl)pyridin-3-yl)carbamate] reads at least 70%; that for `CCS(=O)(=O)c1cc(-c2cc(C(F)(F)F)nn2C)cnc1-c1ccn2nc(C(F)(F)F)cc2n1` [Compound 78, 5-(3-(ethylsulfonyl)-5-(1-methyl-3-(trifluoromethyl)-1H-pyrazol-5-yl)pyridin-2-yl)-2-(trifluoromethyl)pyrazolo[1,5-a]pyrimidine], at least 70%; that for `CCSc1cc(C2CC2)cnc1-c1ccn2nc(C(F)(F)F)cc2n1` [Compound 189, 5-(5-cyclopropyl-3-(ethylthio)pyridin-2-yl)-2-(trifluoromethyl)pyrazolo[1,5-a]pyrimidine], at least 70%. The result for `CCS(=O)(=O)c1cc(-c2ccc(Cl)cc2)cnc1-c1ncc2nc(C(F)(F)F)n(C)c2n1` [Compound 123, 2-(5-(4-chlorophenyl)-3-(ethylsulfonyl)pyridin-2-yl)-9-methyl-8-(trifluoromethyl)-9H-purine] reads at least 70%; that for `CCS(=O)(=O)c1ccc(O)nc1-c1ccn2nc(C(F)(F)F)cc2n1` [Compound 236, 5-(ethylsulfonyl)-6-(2-(trifluoromethyl)pyrazolo[1,5-a]pyrimidin-5-yl)pyridin-2-ol], at least 70%; that for `CCS(=O)(=O)c1cc(CC#N)cnc1-c1ccn2nc(C(F)(F)F)cc2n1` [Compound 232, 2-(5-(ethylsulfonyl)-6-(2-(trifluoromethyl)pyrazolo[1,5-a]pyrimidin-5-yl)pyridin-3-yl)acetonitrile], at least 70%.

The values are drawn from patent US12514251B2, “Fused heterocyclic compounds and their use as pest control agents” (priority 2020, dated 2026).
